Tests used:
Type in all cases: cell-based
Settings in all cases: for SFCK RFU: red, ex 590 nm/em 620 nm; for SFCK RFU / FLCK RFU: average of 4 wells; for FLCK RFU: green, ex 488 nm/em 535 nm
HL-60 cells = assay: FLISP staining of HL-60 cells, fluorescence plate reader
Experimental: (§1) Preparation of reagents: Fluorescent inhibitors of serine proteases (FLISP) reagents, 5(6)-Carboxyfluoresceinyl-L-phenylalanylchloromethyl ketone (FFCK), 5(6)-carboxyfluoresceinyl-L-leucylchloromethyl ketone (FLCK), Sulforhodaminyl 101 -L-phenylalanylchloromethyl ketone (SFCK) and Sulforhodaminyl 101 -L-leucylchloromethyl ketone (SLCK) are dissolved initially in dimethyl sulfoxide (DMSO; Sigma) to yield a 10 mM concentration. Aliquots are made from this stock solution and stored frozen at −20° C. protected from light. The reagent stock of the FLCK is then diluted directly into the cell culture media to give a 1× working reagent concentration of 20 μM and the reagent stock of the SFCK is then diluted directly into the cell culture media to give a 1× working reagent concentration of 5 μM. Dilution of the reagent into aqueous (cell culture) media is done just prior to cell exposure to preserve the labile chloromethyl ketone reactivity of FLISP reagent.
(§2) Cells: Jurkat, HL-60 and U937 cells were obtained from American Type Culture Collection (ATCC; Rockville, Md.). They were cultured in 25 mL FALCON flasks (Becton Dickinson Co., Franklin Lakes, N.J.) using RPMI 1640 supplemented with 10% fetal calf serum, 100 units/mL penicillin, […] and 2 mM L-glutamine (all from Gibco/BRL Life Technologies, Inc., Grand Island, N.Y.) in a humidified incubator set to maintain 37.5° C. and 5 % CO2. At the onset of experiments, the cells were at an exponential and asynchronous growth phase with fewer than 5×10^5 cells per/mL in culture. To induce apoptosis the cells were treated with 0.15 μM DNA topoisomerase I inhibitor camptothecin (CPT; Sigma Chemical Co., St. Louis, Mo.) for 3 hours.
(§3) Cell staining and evaluation by fluorescence plate reader: The Jurkat, HL-60 and U937 cells from the untreated or CPT treated cultures were centrifuged (200 g, 5 min) and resuspended in PBS at approximately 10^6 cells per 5 ml volume. FLISP staining solutions were prepared by diluting 10 μL of a green 10 mM FLISP reagent stock solution (FLCK) and 2.5 μL of a red 10 mM FLISP reagent stock solution (SFCK) into 5 mL of culture medium yielding a final green FLISP concentration of 20 μM and a final red FLISP concentration of 5 μM. When detecting multiple serine proteases use different CMK labeled peptides i.e. FLCK and SFCK or FFCK and SLCK. The FLISP staining solution was removed by washing the cells in wash buffer (0.5% BSA in PBS +0.05% NaN3, pH 7.4) and centrifuging for 5 minutes at 200 g. The washing step was repeated two more times with fresh wash buffer. After the final wash the cells were resuspended in 5 mL wash buffer and 100 μL per were added to a 96 well black microtiter plate (4 wells were used for each sample). Green and red fluorescence were measured simultaneously on a Spectra MAX Gemini XS fluorescence plate reader (Molecular Devices). Green cell fluorescence (FLCK) was then measured using a 488 nm excitation, 535 nm emission with a 515 nm cutoff. Red cell fluorescence (SFCK) was then measured using a 590 nm excitation, 620 emission with a 610 nm cutoff.

U937 cells = assay: FLISP staining of U937 cells, fluorescence plate reader
Experimental: as §1, §2, §3

Jurkat cells = assay: FLISP staining of Jurkat cells, fluorescence plate reader
Experimental: as §1, §2, §3

CCN(CC)c1ccc2c(-c3ccc(S(=O)(=O)NC(Cc4ccccc4)C(=O)CCl)cc3S(=O)(=O)[O-])c3ccc(=[N+](CC)CC)cc-3oc2c1 [SFCK, Sulforhodaminyl-L-phenylalanylchloromethyl ketone]
SFCK Ratio of I/NI (HL-60 cells; HL-60, induced/non-induced, 5 μM): 1.28
SFCK RFU (HL-60 cells; HL-60 I (induced, apoptotic; 0.15 μM CPT 3 h), 5 μM): 49.045 RFU
SFCK RFU (HL-60 cells; HL-60 NI (non-induced), 5 μM): 38.301 RFU
SFCK Ratio of I/NI (U937 cells; U937, induced/non-induced, 5 μM): 1.82
SFCK RFU (U937 cells; U937 I (induced, apoptotic; 0.15 μM CPT 3 h), 5 μM): 44.245 RFU
SFCK RFU (U937 cells; U937 NI (non-induced), 5 μM): 24.341 RFU
SFCK RFU (Jurkat cells; Jurkat I (induced, apoptotic; 0.15 μM CPT 3 h), 5 μM): 74.348 RFU
SFCK RFU (Jurkat cells; Jurkat NI (non-induced), 5 μM): 30.596 RFU
SFCK Ratio of I/NI (Jurkat cells; Jurkat, induced/non-induced, 5 μM): 2.43

5(6)-carboxyfluoresceinyl-L-leucylchloromethyl ketone [FLCK]
FLCK Ratio of I/NI (HL-60 cells; HL-60, induced/non-induced, 20 μM): 1.59
FLCK RFU (HL-60 cells; HL-60 I (induced, apoptotic; 0.15 μM CPT 3 h), 20 μM): 7.552 RFU
FLCK RFU (HL-60 cells; HL-60 NI (non-induced), 20 μM): 4.748 RFU
FLCK Ratio of I/NI (U937 cells; U937, induced/non-induced, 20 μM): 3.70
FLCK RFU (U937 cells; U937 I (induced, apoptotic; 0.15 μM CPT 3 h), 20 μM): 8.208 RFU
FLCK RFU (U937 cells; U937 NI (non-induced), 20 μM): 2.218 RFU
FLCK RFU (Jurkat cells; Jurkat I (induced, apoptotic; 0.15 μM CPT 3 h), 20 μM): 13.291 RFU
FLCK RFU (Jurkat cells; Jurkat NI (non-induced), 20 μM): 3.702 RFU
FLCK Ratio of I/NI (Jurkat cells; Jurkat, induced/non-induced, 20 μM): 3.59

Source: US20060148023A1, “Affinity labeling of serine proteases for simultaneous detection of multiple serine protease activity levels” (priority 2001, published 2006)
